# Assay results from US20220273658A1, “SMALL MOLECULE LIVER X RECEPTOR MODULATORS AND USES THEREOF” (University of Houston System, priority 2019, published 2022).
# Key:
# [1] = tested on: PDAC cell lines; assay: tetrazolium salt reduction (WST) assay in PDAC cell lines; format: cell-based, human; conditions: WST screen, three human pancreatic cancer cell lines
# Method: To determine the effects of LXR ligands on PDAC cell proliferation, cells were treated with synthetic LXR agonist GW3965 and live cells were quantified using trypan blue exclusion assays. […] FIGS. 8A, 8B, and 8C show dose-dependent decreases in cell proliferation in BxPC-3, Mia-PaCa-2, and PANC-1, respectively upon treatment with increasing GW3965 concentrations. […] Clonogenic assays were also employed to evaluate the effects of long-term LXR ligand treatment on cell proliferation and colony formation. […] These findings indicate that LXRs are involved in PDAC cell proliferation and targeting LXRs with ligands perturb their normal functions in cell proliferation.
# (§1) The initial identification and subsequent characterization of the two novel LXR ligands and their derivative compounds was carried out in screens in three human pancreatic cancer cell and one non-transformed human pancreatic epithelial cell line in three or more replicate experiments for each cell line using the WST tetrazolium salt reduction assays.
# [2] = tested on: HPNE cells; assay: growth of non-transformed pancreatic epithelial cells (WST screen; FIG. 32D); format: cell-based, human; conditions: WST screen
# Method: as §1
# (§2) The synthesis and characterization of KD-01-39, a derivative of 3A4, have not been described previously.
# [3] = tested on: KPC tumor cells; assay: growth of KPC tumor cells from mouse model of PDAC; format: cell-based
# Description: The effects of the ligands and derivatives on the growth of PDAC cells were further validated by cell counting and clonogenic assays.
# [4] = tested on: human PDAC cell lines; assay: cell viability response curves with increasing concentrations; format: cell-based
# [5] = tested on: MCF-7; assay: expression of LXR target genes in breast cancer cells; format: cell-based; conditions: MCF-7, ER-positive
# Description: (§3) The inhibitory effects of LXR ligands in breast cancer cells have been shown previously. […] The observed decreases in LXR protein levels were not affected by proteasome inhibitor MG132.
# [6] = tested on: MDA-MB-231; assay: as above; format: cell-based; conditions: MDA-MB-231, triple-negative
# Description: as §3
# [7] = tested on: MCF-7 cells; assay: breast cancer cell proliferation; format: cell-based
# Description: as §3
# [8] = tested on: MDA-MB-231 cells; assay: breast cancer cell proliferation; format: cell-based
# Description: as §3
# [9] = tested on: LXR in MDA-MB-231 cells; assay: western blot of LXR protein levels; format: cell-based
# Description: as §3
# [10] = tested on: LXR proteins in MCF-7 cells; assay: western blot of LXR protein levels; format: cell-based
# Description: as §3
# [11] = tested on: LXR target genes SREBF1c, ABCA1, and ABCG1; assay: expression of LXR target genes in pancreatic cancer cell lines; format: cell-based, human
# Description: To characterize the activity of the newly discovered ligands, the expression of LXR target genes SREBF1c, ABCA1, and ABCG1 was examined following treatment with vehicle, synthetic agonist GW3965, and Compounds 1E5 and 3A4. […] Basal expression of SREBF1c, the canonical LXR target gene involved in the regulation of glucose and lipid metabolism, was disrupted by the addition of novel LXR ligands, whereas their expression was induced following treatment with synthetic agonist GW3965 in all three pancreatic cancer cell lines tested, whereas the effects on ABCA1 and ABCG1 varied between the two novel ligands and across the cell lines.
# (§4) To elucidate mechanisms of inverse agonism by the novel ligands, TR-FRET experiments were conducted to determine the effects of 1E5 and 3A4 on the recruitment of NR co-activators and co-repressors. […] In addition to their functions as inverse agonists, extended treatments with 1E5 and 3A4 also destabilized or decreased LXR proteins.
# [12] = tested on: LXR ligand-binding domain; assay: TR-FRET assay of co-activator and co-repressor peptide recruitment; format: biochemical
# Method: as §4, §2
# [13] = biological target: T1, LXR proteins (Homo sapiens, UniProt P55055); assay: LXR protein levels after long-term treatment of pancreatic cancer cells; format: cell-based; conditions: long-term treatments
# T1 construct: expression of LXR proteins in different pancreatic cancer cell lines following long-term treatments; endogenous in cells; host or cells: pancreatic cancer cell lines (BxPC-3, MIA PaCa-2, PANC-1 named elsewhere)
# T1 sequence (P55055 whole entry): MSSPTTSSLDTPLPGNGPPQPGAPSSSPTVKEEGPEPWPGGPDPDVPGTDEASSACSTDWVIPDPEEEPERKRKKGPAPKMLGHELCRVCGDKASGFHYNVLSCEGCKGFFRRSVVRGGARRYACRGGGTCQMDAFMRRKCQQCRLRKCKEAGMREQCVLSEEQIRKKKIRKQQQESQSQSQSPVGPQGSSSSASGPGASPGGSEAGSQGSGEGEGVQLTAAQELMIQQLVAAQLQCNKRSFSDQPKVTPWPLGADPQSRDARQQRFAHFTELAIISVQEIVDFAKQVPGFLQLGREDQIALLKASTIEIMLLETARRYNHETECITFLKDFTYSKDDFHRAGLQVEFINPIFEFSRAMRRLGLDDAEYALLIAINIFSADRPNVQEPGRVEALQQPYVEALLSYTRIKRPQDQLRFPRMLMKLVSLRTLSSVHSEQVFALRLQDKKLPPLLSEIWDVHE
# Method: as §4
# [14] = tested on: pancreatic cancer cells; assay: metabolomic analysis using mass spectroscopy in pancreatic cancer cells; format: cell-based, human; conditions: PDAC cells
# Method: To further characterize the mechanisms of action of novel LXR modulators 1E5 and 3A4, metabolomic and transcriptomic analysis of pancreatic cancer cells were conducted in response to treatment. […] PDAC tumors have altered metabolism to support its growth and survival. Previous studies have reported that Kras upregulates the non-canonical use of glutamine to maintain NADPH/NADP+ ratio which in turn regulates redox homeostasis. This unconventional use of glutamine by PDAC cells fuel cancer cell proliferation and survival. Glutamine metabolism in PDAC has two unique functions: 1. Glutamine-derived Glutamate is used for glutathione (GSH) biosynthesis. 2. Glutamine facilitates generation of reducing equivalents in the form of NADPH. In PDAC mitochondria, glutamine is converted to glutamate by glutaminase enzyme (GLS1). This glutamine derived glutamate is conventionally converted to alpha-ketoglutarate by glutamate dehydrogenase (GLUD1) to fuel citric acid cycle. However, in PDAC cells glutamate is converted to aspartate in cytosol which is converted to malic acid and NADPH is produced during this process. This process is essential to maintain redox homeostasis in the tumor. However, this non-canonical use of glutamine is dispensable in non-malignant cells. Therefore, targeting GLS1 to decrease the bioavailability of glutamate to act as source of nitrogen and carbon for the synthesis of amino acids and nucleic acids is a viable strategy to target PDAC tumors. […] The effect of 1E5 is similar to BPTES, a potent GLS1 inhibitor.
# TCA cycle intermediates act as anaplerotic substrate for gluconeogenesis and lipogenesis. […] GOT2 converts glutamine-derived glutamate to alpha-KG. During this process oxaloacetate is converted to aspartate which is required to maintain redox homeostasis. Studies have shown that inhibition of GOT2 in PDAC promotes senescence.
# (§5) To determine if 1E5 and 3A4 can induce apoptosis, PDAC cells were treated with the LXR ligands and subjected to pro-apoptotic caspase cleavage analysis. […] Metabolomic profiling following treatments with the two ligands indicated the activation of two distinct cell death mechanisms. Ferroptosis is a non-apoptotic form of cell death which is characterized by accumulation of lipid peroxides by loss of glutathione peroxidase 4 (GPX4) activity. It can also be induced by accumulation of intracellular iron and depletion of reduced glutathione (GSH). GPX4 is an anti-oxidant enzyme involved in conversion of PUFA peroxides to PUFA alcohols. GSH is a critical cofactor of GPX4 and acts as a reducing agent to reduce the lipid peroxides. Therefore, direct inhibition of GPX4 activity or reduction in GSH levels trigger ferroptosis. The second mechanism of inducing ferroptosis is accumulation of polyunsaturated fatty acids (PUFAs) in cells. Studies have shown that PUFAs are the most susceptible lipids to peroxidation.
# Expression profiles of ferroptosis genes in RNAseq data following 1E5 treatment were also consistent with its pro-ferroptotic actions. […] Polyamines are amino-acid derived polycationic alkylamines that are required for the growth of cells. SAT1 catalyzes the acetylation of spermidine and spermine to form N-acetylspermidine and N-acetylspermine respectively. […] SAT1 induces ferroptosis by upregulating the peroxidation of PUFA arachidonic acid. Ceramides are sphingolipids consisting of sphingosine and fatty acid acyl chain. Cellular stress leads to upregulation of ceramide synthesis which mediate caspase-dependent apoptosis. Accumulation of ceramides/hexosylceramides in the mitochondria leads to the formation of channel like structures in the mitochondrial outer membrane which increases the permeability of pro-apoptotic proteins such as cytochrome c. ER stress is also known to activate de-novo synthesis of ceramides and induce apoptosis by increasing the flow of Ca ions and upregulating the unfolded protein stress response. […]
# [15] = tested on: PDAC cells; assay: pro-apoptotic caspase cleavage analysis; format: cell-based, human
# Method: as §5
# Accumulation of C18 ceramides in the mitochondria leads to the recruitment of auto phagosomes in mitochondria and induces LC3-ceramide dependent lethal mitophagy. […] Darkened circles indicate increases and the size of the circle corresponds to the significance of changes.
# [16] = tested on: LXR-LBD; assay: differential scanning fluorimetry; format: binding
# Description: as §2
structure (smiles),measurement,setting,value
"COc1cc(OC)cc(C(=O)N2CCN(c3ccccc3C)CC2)c1 [Compound 3A4, 1-(3,5-dimethoxybenzoyl)-4-(2-methylphenyl)piperazine]",human pancreatic cancer cells growth,[1],effective in inhibiting human pancreatic cancer cells growth
same,activity against non-transformed HPNE cells,[2],little activity
same,growth of KPC tumor cells,[3],blocked the growth
same,potency in response curves compared to GW3965,[4],more potent activity as compared to GW3965
same,expression of LXR target genes,[5],generally down-regulated
same,expression of LXR target genes,[6],generally down-regulated
same,proliferation of MCF-7 cells,[7],inhibited the proliferation
same,proliferation of MDA-MB-231 cells,[8],inhibited
same,LXR protein levels (degradation),[9],only 1E5 degraded LXR
same,LXR protein levels (degradation),[10],act as degraders of LXR proteins
same,basal expression of SREBF1c,[11]; all three pancreatic cancer cell lines,disrupted
same,"expression of FASN, SCD, and ACC",[11]; pancreatic cancer cells,decreased the expression
same,expression of LXR target genes,[11]; three pancreatic cancer cell lines,reducing the expression of LXR target genes
same,co-activator peptide binding to LXR ligand-binding domain,[12]; co-activator (D22) peptide,did not affect co-activator peptide binding
same,binding of NCOR and SMRT co-repressor peptides,[12]; co-repressor (NCOR and SMRT-ID2) peptides,increased the binding
same,LXR protein levels,[13],decreased LXR protein levels
same,levels of C18 and C16 ceramides and hexosylceramides,[14],significantly upregulates
same,pro-apoptotic caspase cleavage,[15],induced pro-apoptotic caspase cleavage
same,apoptosis,[15]; PDAC cells,induces caspase-dependent apoptosis
same,LXR-LBD structure and dye dissociation with increasing temperature,[16],disrupted the LBD structure
